Measurements published in patent publication US12186457B2, “Sphingolipid coatings and process for manufacturing sphingolipid coatings effective for inhibiting biofilm formation” (UNIVERSITY OF CINCINNATI, priority 2015, dated 2025).

What was measured:
Solubility in water = format: physicochemical
[1] = Quantification of sphingosine on the coated surface by mass spectrometry; format: physicochemical; conditions: mass spectrometry (FIG. 18A)
Procedure: Coated plastic surfaces were extracted by a one-step lipid extraction. Briefly, a plastic piece was transferred into a siliconized glass tube and adsorbed sphingosine was extracted by addition of 10 mL methanol and sonification on ice for 1 hour. After centrifugation, the lipid extract was diluted with methanol and 50 pmol of C17-sphingosine was added as internal standard. […] Ion funnel parameters were: high pressure RF voltage 110 V and low pressure RF voltage 60 V. Multiple reaction monitoring (MRM) transition 300.3 m/z>282.3 m z at 8 eV collision energy was used for quantification of sphingosine, whereas MRM transition 286.3 m/z>268.3 m/z at 8 eV collision energy was used for quantification of C17-sphingosine. Quantification was performed with Mass Hunter Software (Agilent Technologies).
To determine the total amount of sphingosine present on the surface of the endotracheal tubes after dip coating, we performed mass spectrometry (FIG. 18A) and a sphingosine kinase radioactivity assay (FIG. 18B). […] Sphingosine was either extracted and analyzed by mass spectrometry (FIG. 18A) or sphingosine kinase assay (FIG. 18B). The amount of sphingosine calculated on the surface after dip coating is (A) 131 nmol/cm^2 and (B) 152.5 nmol/cm^2, respectively.

[2] = Quantification of sphingosine on the coated surface by sphingosine kinase assay; format: physicochemical; conditions: sphingosine kinase assay (FIG. 18B)
Procedure: Plastic pieces were extracted in CHCl3/CH3OH/1N HCl (100:100:1, v/v/v), the lower phase was dried and resuspended in a detergent solution (7.5% [w/v] n-octyl glucopyranoside, 5 mM cardiolipin in 1 mM diethylenetriaminepentaacetic acid (DTPA)). The kinase reaction was initiated by addition of 0.004 units sphingosine kinase in 50 mM HEPES (pH 7.4), 250 mM NaCl, 30 mM MgCl2 1 μM ATP and 5 μCi [^32P]γATP. Samples were incubated for 60 min at 37° C. with shaking (350 rpm), then extracted in 20 μl 1N HCl, 800 μl CHCl3/CH3OH/1N HCl (100:200:1, v/v/v), 240 μl CHCl3 and 2 M KCl. The lower phase was collected, dried, dissolved in 20 μL of CHCl3:CH3OH (1:1, v/v) and separated on Silica G60 thin layer chromatography (TLC) plates using CHCl3/CH3OH/acetic acid/H2O (90:90:15:5, v/v/v/v) for SPH. The TLC plates were analyzed using a phosphoimager.
To determine the total amount of sphingosine present on the surface of the endotracheal tubes after dip coating, we performed mass spectrometry (FIG. 18A) and a sphingosine kinase radioactivity assay (FIG. 18B). Both methods confirmed a concentration of sphingosine in the nmol to μmol range per cm^2. […] Sphingosine was either extracted and analyzed by mass spectrometry (FIG. 18A) or sphingosine kinase assay (FIG. 18B). The amount of sphingosine calculated on the surface after dip coating is (A) 131 nmol/cm^2 and (B) 152.5 nmol/cm^2, respectively.

[3] = inhalation, cited from earlier work

Structure (SMILES) | solubility in water (Solubility in water) | amount of sphingosine calculated on the surface after dip coating [1] [nmol/cm^2] | amount of sphingosine calculated on the surface after dip coating [2] [nmol/cm^2] | observable toxicity ([3]; mice) | rates of pneumonia ([3]; susceptible mice)
CCCCCCCCCCCCCC[C@@H](O)[C@@H](O)[C@@H](N)CO [phytosphingosine, D-ribo-phytosphingosine] | nearly completely insoluble in water | – | – | – | –
CCCCCCCCCCCCC/C=C/[C@@H](O)[C@@H](N)CO [sphingosine, D-erythrosphingosine (d18:1)] | nearly completely insoluble in water | 131 | 152.5 | did not result in any observable toxicity | reduce rates of pneumonia in susceptible mice
